According to ChEMBL document CHEMBL4507278 (2021):

How the values were obtained:
[1] = molecular target: Peripheral plasma membrane protein CASK (Homo sapiens) (UniProt O14936); conditions: Compound concentration 1000.0 nM
[2] = molecular target: STE20-like serine/threonine-protein kinase (Homo sapiens) (UniProt Q9H2G2); conditions: Compound concentration 1000.0 nM
[3] = molecular target: Testis-specific serine/threonine-protein kinase 3 (Homo sapiens) (UniProt Q96PN8); conditions: Compound concentration 1000.0 nM
[4] = molecular target: Tyrosine-protein kinase JAK1 (Homo sapiens) (UniProt P23458); conditions: Compound concentration 1000.0 nM
[5] = test system: Mast/stem cell growth factor receptor Kit (Homo sapiens), P10721 [D816H]; conditions: Compound concentration 1000.0 nM
[6] = test system: Epidermal growth factor receptor (Homo sapiens), P00533 [UNDEFINED MUTATION]; conditions: Compound concentration 1000.0 nM
[7] = molecular target: Casein kinase I isoform alpha-like (Homo sapiens) (UniProt Q8N752); conditions: Compound concentration 1000.0 nM
[8] = molecular target: Calcium/calmodulin-dependent protein kinase type 1B (Homo sapiens) (UniProt Q6P2M8); conditions: Compound concentration 1000.0 nM
[9] = test system: Mast/stem cell growth factor receptor Kit (Homo sapiens), P10721 [V559D,T670I]; conditions: Compound concentration 1000.0 nM
[10] = molecular target: Serine/threonine-protein kinase WNK3 (Homo sapiens) (UniProt Q9BYP7); conditions: Compound concentration 1000.0 nM
[11] = molecular target: Leucine-rich repeat serine/threonine-protein kinase 2 (Homo sapiens) (UniProt Q5S007); conditions: Compound concentration 1000.0 nM
[12] = molecular target: Serine/threonine-protein kinase tousled-like 1 (Homo sapiens) (UniProt Q9UKI8); conditions: Compound concentration 1000.0 nM
[13] = test system: Receptor-type tyrosine-protein kinase FLT3 (Homo sapiens), P36888 [D835V]; conditions: Compound concentration 1000.0 nM
[14] = test system: Epidermal growth factor receptor (Homo sapiens), P00533 [G719S]; conditions: Compound concentration 1000.0 nM
[15] = molecular target: Beta-3 adrenergic receptor (Homo sapiens) (UniProt P13945); conditions: Compound concentration 10.0 uM
[16] = molecular target: Serine/threonine-protein kinase 38-like (Homo sapiens) (UniProt Q9Y2H1); conditions: Compound concentration 1000.0 nM
[17] = molecular target: Dual specificity mitogen-activated protein kinase kinase 7 (Homo sapiens) (UniProt O14733); conditions: Compound concentration 1000.0 nM
[18] = molecular target: Homeodomain-interacting protein kinase 2 (Homo sapiens) (UniProt Q9H2X6); conditions: Compound concentration 1000.0 nM
[19] = molecular target: Insulin receptor (Homo sapiens) (UniProt P06213); conditions: Compound concentration 1000.0 nM
[20] = test system: Mast/stem cell growth factor receptor Kit (Homo sapiens), P10721 [V559D,V654A]; conditions: Compound concentration 1000.0 nM
[21] = molecular target: Serine/threonine-protein kinase PRP4 homolog (Homo sapiens) (UniProt Q13523); conditions: Compound concentration 1000.0 nM
[22] = molecular target: Cyclin-dependent kinase 4 (Homo sapiens) (UniProt P11802); conditions: Compound concentration 1000.0 nM
[23] = molecular target: Tyrosine-protein kinase ABL1 (Homo sapiens) (UniProt P00519); conditions: Compound concentration 1000.0 nM
[24] = molecular target: Serine/threonine-protein kinase LATS1 (Homo sapiens) (UniProt O95835); conditions: Compound concentration 1000.0 nM
[25] = molecular target: T1, 5-hydroxytryptamine receptor 1A (Homo sapiens) (UniProt P08908); conditions: Compound concentration 10.0 uM
T1 sequence (whole entry): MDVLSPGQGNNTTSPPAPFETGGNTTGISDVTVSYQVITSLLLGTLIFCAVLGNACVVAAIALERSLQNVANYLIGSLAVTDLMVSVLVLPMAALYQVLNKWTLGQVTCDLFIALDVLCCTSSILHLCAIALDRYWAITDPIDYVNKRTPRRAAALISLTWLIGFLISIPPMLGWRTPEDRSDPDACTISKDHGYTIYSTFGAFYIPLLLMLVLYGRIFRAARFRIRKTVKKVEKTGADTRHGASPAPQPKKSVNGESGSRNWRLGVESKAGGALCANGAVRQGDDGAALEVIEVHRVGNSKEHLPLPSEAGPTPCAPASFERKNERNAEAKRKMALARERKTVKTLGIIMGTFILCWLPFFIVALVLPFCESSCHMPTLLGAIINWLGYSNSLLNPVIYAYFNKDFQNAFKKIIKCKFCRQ

[26] = molecular target: Serine/threonine-protein kinase 26 (Homo sapiens) (UniProt Q9P289); conditions: Compound concentration 1000.0 nM
[27] = test system: eIF-2-alpha kinase GCN2 (Homo sapiens), Q9P2K8 [S808G]; conditions: Compound concentration 1000.0 nM
[28] = test system: Receptor-type tyrosine-protein kinase FLT3 (Homo sapiens), P36888 [D835Y]; conditions: Compound concentration 1000.0 nM
[29] = molecular target: Serine/threonine-protein kinase RIO1 (Homo sapiens) (UniProt Q9BRS2); conditions: Compound concentration 1000.0 nM
[30] = test system: ALK tyrosine kinase receptor (Homo sapiens), Q9UM73 [L1196M]; conditions: Compound concentration 1000.0 nM
[31] = molecular target: 5-hydroxytryptamine receptor 2A (Homo sapiens) (UniProt P28223); conditions: Compound concentration 10.0 uM
[32] = molecular target: Dual specificity protein kinase CLK1 (Homo sapiens) (UniProt P49759); conditions: Compound concentration 1000.0 nM
[33] = test system: Mast/stem cell growth factor receptor Kit (Homo sapiens), P10721 [D816V]; conditions: Compound concentration 1000.0 nM
[34] = molecular target: Inhibitor of nuclear factor kappa-B kinase subunit beta (Homo sapiens) (UniProt O14920); conditions: Compound concentration 1000.0 nM
[35] = molecular target: Interleukin-1 receptor-associated kinase 3 (Homo sapiens) (UniProt Q9Y616); conditions: Compound concentration 1000.0 nM
[36] = molecular target: Histamine H1 receptor (Homo sapiens) (UniProt P35367); conditions: Compound concentration 10.0 uM
[37] = molecular target: Interleukin-1 receptor-associated kinase 1 (Homo sapiens) (UniProt P51617); conditions: Compound concentration 1000.0 nM
[38] = test system: Serine/threonine-protein kinase B-raf (Homo sapiens), P15056 [V600E]; conditions: Compound concentration 1000.0 nM
[39] = molecular target: Ribosomal protein S6 kinase alpha-2 (Homo sapiens) (UniProt Q15349); conditions: Compound concentration 1000.0 nM

Sequence of Inhibitor of nuclear factor kappa-B kinase subunit beta (Homo sapiens) (O14920 whole entry): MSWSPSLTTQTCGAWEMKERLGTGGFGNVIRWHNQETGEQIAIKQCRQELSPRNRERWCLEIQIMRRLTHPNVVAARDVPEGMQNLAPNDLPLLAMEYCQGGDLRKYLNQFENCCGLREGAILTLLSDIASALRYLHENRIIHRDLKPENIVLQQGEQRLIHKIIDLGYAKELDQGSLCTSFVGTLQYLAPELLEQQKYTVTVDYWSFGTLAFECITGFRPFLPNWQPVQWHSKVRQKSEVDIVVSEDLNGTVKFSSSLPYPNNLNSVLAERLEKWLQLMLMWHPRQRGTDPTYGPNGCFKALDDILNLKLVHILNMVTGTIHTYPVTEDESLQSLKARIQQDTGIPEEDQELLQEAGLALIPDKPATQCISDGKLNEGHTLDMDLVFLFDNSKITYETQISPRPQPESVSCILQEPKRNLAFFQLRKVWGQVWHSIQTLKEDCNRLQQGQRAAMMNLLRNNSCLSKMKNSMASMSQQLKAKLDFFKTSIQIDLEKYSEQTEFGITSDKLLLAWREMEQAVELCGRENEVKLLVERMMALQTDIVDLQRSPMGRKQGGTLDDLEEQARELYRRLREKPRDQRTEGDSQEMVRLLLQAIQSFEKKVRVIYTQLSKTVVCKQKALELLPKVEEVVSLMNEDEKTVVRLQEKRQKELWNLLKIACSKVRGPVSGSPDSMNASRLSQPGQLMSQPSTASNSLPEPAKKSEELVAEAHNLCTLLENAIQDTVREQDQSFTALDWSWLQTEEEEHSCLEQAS
Sequence of Serine/threonine-protein kinase tousled-like 1 (Homo sapiens) (Q9UKI8 whole entry): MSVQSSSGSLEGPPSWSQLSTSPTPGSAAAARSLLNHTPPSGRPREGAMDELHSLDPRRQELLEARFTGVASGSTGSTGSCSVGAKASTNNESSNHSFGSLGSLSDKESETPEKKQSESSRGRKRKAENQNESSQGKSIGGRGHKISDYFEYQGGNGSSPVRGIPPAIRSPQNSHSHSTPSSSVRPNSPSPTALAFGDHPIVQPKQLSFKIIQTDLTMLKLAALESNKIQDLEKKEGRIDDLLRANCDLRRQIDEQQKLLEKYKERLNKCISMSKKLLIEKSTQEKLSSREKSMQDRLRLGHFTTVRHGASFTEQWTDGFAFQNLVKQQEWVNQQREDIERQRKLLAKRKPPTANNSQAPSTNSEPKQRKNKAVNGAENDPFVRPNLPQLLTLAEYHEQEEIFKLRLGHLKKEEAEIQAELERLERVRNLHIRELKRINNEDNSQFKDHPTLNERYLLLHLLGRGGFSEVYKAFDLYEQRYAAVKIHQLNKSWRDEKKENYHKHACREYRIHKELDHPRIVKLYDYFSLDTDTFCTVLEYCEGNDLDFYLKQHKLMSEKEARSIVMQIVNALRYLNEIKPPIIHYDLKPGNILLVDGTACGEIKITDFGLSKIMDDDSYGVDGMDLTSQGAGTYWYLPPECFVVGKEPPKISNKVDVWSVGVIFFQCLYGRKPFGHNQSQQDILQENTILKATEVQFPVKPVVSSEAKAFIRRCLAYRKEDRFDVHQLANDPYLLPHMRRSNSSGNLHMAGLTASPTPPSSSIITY
Sequence of Calcium/calmodulin-dependent protein kinase type 1B (Homo sapiens) (Q6P2M8 whole entry): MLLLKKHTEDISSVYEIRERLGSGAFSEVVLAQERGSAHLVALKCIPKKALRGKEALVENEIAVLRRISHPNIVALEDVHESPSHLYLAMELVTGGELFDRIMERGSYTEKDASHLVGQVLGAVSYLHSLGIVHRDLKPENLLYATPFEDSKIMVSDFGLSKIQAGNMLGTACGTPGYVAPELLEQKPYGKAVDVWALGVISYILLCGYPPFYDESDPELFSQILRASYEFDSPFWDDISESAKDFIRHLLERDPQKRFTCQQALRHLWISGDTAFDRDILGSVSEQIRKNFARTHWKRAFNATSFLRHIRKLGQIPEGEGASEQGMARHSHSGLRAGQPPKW
Sequence of Tyrosine-protein kinase JAK1 (Homo sapiens) (P23458 whole entry): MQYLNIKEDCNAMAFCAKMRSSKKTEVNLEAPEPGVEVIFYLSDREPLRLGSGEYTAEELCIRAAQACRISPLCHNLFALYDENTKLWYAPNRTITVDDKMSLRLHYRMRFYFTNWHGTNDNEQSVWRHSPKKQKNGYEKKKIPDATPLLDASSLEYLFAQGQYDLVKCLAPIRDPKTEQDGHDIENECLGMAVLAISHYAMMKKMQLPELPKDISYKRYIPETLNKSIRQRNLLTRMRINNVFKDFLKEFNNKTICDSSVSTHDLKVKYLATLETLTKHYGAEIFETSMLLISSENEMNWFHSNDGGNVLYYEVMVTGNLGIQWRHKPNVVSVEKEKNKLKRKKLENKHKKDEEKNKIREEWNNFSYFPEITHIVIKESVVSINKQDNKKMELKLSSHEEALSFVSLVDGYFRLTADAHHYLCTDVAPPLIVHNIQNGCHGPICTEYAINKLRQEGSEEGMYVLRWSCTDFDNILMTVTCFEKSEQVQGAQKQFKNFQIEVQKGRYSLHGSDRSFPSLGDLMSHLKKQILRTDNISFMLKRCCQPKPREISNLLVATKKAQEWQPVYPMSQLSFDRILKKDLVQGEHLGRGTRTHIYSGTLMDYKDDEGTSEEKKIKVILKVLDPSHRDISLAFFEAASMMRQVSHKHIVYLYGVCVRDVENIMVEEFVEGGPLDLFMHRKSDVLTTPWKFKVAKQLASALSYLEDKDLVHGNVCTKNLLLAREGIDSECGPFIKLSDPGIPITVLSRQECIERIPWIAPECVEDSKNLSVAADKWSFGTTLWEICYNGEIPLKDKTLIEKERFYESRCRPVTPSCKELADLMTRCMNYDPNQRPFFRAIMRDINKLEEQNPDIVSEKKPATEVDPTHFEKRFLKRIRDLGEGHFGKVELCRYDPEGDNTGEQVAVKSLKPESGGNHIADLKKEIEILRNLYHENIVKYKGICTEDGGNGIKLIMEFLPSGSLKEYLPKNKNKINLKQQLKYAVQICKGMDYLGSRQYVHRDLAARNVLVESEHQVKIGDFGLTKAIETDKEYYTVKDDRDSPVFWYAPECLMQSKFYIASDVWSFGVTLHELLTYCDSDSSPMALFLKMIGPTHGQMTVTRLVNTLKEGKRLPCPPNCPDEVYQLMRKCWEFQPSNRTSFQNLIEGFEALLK
Sequence of Interleukin-1 receptor-associated kinase 1 (Homo sapiens) (P51617 whole entry, looked up): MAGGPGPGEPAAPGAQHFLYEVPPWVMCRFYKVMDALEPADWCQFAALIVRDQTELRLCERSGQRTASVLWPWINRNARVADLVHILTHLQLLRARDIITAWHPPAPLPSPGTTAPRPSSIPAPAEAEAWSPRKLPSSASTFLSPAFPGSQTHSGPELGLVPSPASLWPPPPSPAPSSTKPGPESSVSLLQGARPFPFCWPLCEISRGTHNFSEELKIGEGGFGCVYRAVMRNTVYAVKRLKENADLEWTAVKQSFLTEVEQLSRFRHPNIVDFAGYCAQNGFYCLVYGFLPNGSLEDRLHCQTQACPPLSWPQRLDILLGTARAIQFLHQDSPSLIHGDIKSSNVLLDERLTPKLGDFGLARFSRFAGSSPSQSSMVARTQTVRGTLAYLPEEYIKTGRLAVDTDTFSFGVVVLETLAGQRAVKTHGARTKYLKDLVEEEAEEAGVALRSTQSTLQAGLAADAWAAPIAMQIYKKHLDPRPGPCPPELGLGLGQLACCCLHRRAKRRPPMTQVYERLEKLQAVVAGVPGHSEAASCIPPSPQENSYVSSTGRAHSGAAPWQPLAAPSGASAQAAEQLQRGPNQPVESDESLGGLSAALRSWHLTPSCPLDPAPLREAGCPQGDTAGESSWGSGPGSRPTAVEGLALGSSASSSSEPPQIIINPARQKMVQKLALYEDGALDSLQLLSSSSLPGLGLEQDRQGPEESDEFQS
Sequence of Homeodomain-interacting protein kinase 2 (Homo sapiens) (Q9H2X6 whole entry, looked up): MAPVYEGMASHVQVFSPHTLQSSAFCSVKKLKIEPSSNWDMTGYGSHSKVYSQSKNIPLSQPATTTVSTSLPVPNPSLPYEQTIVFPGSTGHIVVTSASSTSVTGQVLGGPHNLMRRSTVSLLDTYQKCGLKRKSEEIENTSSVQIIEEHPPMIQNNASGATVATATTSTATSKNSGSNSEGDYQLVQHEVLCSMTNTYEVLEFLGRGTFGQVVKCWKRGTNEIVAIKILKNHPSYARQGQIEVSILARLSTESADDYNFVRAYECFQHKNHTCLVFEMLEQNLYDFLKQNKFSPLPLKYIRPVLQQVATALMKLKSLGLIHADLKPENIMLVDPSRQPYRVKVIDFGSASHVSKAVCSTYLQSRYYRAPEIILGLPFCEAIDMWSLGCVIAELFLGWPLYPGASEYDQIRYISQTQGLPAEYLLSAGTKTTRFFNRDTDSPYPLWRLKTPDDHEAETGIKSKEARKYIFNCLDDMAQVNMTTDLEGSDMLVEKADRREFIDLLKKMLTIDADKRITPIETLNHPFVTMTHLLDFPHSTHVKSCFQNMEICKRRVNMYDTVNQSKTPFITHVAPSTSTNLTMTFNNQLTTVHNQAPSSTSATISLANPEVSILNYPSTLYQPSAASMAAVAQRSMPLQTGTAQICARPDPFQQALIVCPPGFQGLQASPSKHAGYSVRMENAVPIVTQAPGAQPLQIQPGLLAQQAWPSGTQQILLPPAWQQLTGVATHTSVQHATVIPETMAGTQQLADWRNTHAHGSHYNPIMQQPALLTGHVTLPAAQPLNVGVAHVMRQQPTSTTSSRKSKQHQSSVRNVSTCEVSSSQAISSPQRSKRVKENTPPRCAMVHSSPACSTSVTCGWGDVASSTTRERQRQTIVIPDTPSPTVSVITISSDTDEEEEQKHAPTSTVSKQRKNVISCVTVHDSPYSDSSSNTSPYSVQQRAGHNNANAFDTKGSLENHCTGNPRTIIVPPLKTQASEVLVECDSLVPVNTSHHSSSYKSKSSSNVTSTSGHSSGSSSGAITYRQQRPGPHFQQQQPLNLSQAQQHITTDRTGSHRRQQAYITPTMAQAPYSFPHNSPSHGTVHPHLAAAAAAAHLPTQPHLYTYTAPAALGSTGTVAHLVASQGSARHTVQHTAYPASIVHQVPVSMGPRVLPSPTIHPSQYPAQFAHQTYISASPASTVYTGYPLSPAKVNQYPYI

Q: What does the source list for `CS(=O)(=O)NCC[C@H](NC(=O)c1cncc2c1cnn2-c1ccc(F)cc1)c1ccnc(S(C)(=O)=O)c1` [BI 9307]?
A: residual activity [1]: 100%; residual activity [2]: 100%; residual activity [3]: 100%; residual activity [4]: 96%; residual activity [5]: 100%; residual activity [6]: 100%; residual activity [7]: 94%; residual activity [8]: 85%; residual activity [9]: 100%; residual activity [10]: 100%; residual activity [11]: 86%; residual activity [12]: 100%; residual activity [13]: 100%; residual activity [14]: 75%; inhibition [15]: -5.01%; residual activity [16]: 50%; residual activity [17]: 100%; residual activity [18]: 100%; residual activity [19]: 92%; residual activity [20]: 100%; residual activity [21]: 69%; residual activity [22]: 100%; residual activity [23]: 90%; residual activity [24]: 100%; inhibition [25]: 13.3%; residual activity [26]: 98%; residual activity [27]: 100%; residual activity [28]: 97%; residual activity [29]: 85%; residual activity [30]: 100%; inhibition [31]: 11.8%; residual activity [32]: 93%; residual activity [33]: 94%; residual activity [34]: 89%; residual activity [35]: 89%; inhibition [36]: 12.5%; residual activity [37]: 100%; residual activity [38]: 100%; residual activity [39]: 100%

Q: `CS(=O)(=O)c1cc(C2(NC(=O)c3cncc4c3cnn4-c3ccc(F)cc3)CC2)ccn1` [BI 639667] was tested. Which residual activity [1] did it give?
A: 100%

Q: What about the residual activity [2] of the same molecule?
A: 100%

Q: And the residual activity [3]?
A: 100%

Q: What about the residual activity [4] of the same molecule?
A: 96%

Q: And the residual activity [5]?
A: 49%

Q: And the residual activity [6]?
A: 100%

Q: What about the residual activity [7] of the same molecule?
A: 100%

Q: What about the residual activity [8] of the same molecule?
A: 78%

Q: And the residual activity [9]?
A: 84%

Q: And the residual activity [10]?
A: 100%

Q: What about the residual activity [11] of the same molecule?
A: 43%

Q: What about the residual activity [12] of the same molecule?
A: 75%

Q: What about the residual activity [13] of the same molecule?
A: 100%

Q: What about the residual activity [14] of the same molecule?
A: 100%

Q: And the inhibition [15]?
A: -5.91%

Q: And the residual activity [16]?
A: 34%

Q: And the residual activity [17]?
A: 91%

Q: And the residual activity [18]?
A: 100%

Q: What about the residual activity [19] of the same molecule?
A: 100%

Q: What about the residual activity [20] of the same molecule?
A: 88%

Q: And the residual activity [21]?
A: 100%

Q: And the residual activity [22]?
A: 83%

Q: What about the residual activity [23] of the same molecule?
A: 86%

Q: And the residual activity [24]?
A: 98%

Q: And the inhibition [25]?
A: -9.71%

Q: And the residual activity [26]?
A: 97%

Q: And the residual activity [27]?
A: 91%

Q: And the residual activity [28]?
A: 98%

Q: What about the residual activity [29] of the same molecule?
A: 80%

Q: And the residual activity [30]?
A: 100%

Q: What about the inhibition [31] of the same molecule?
A: 20.4%

Q: And the residual activity [32]?
A: 98%

Q: What about the residual activity [33] of the same molecule?
A: 100%

Q: What about the residual activity [34] of the same molecule?
A: 100%

Q: What about the residual activity [35] of the same molecule?
A: 59%

Q: And the inhibition [36]?
A: 11.2%

Q: And the residual activity [37]?
A: 87%

Q: What about the residual activity [38] of the same molecule?
A: 94%

Q: And the residual activity [39]?
A: 100%
